For two compounds, Ki results are on record in BindingDB's records for PubMed 2156866 (Nagoya University School of Medicine, 1990).

Assay in all cases: Enzyme Assay
Common to all, as to details: 30 °C

Assay [1] addresses Calcium/calmodulin-dependent protein kinase type II subunit beta (Homo sapiens, UniProt Q13554). An excerpt: (§1) Protein kinase C, cAMP dependent protein kinase, cGMP dependent protein kinase and myosin light chain kinase activity were measure under conditions described by Hidaka. Casein kinases I and II activities were meas8ured as described by Chijiwa. Ca/ calmodulin kinase II activity was measure d by the method described by McGuinness.

In assay [2] the target is T1, cGMP-dependent protein kinase 1 (Homo sapiens, UniProt Q13976).
T1 sequence (Q13976 whole entry): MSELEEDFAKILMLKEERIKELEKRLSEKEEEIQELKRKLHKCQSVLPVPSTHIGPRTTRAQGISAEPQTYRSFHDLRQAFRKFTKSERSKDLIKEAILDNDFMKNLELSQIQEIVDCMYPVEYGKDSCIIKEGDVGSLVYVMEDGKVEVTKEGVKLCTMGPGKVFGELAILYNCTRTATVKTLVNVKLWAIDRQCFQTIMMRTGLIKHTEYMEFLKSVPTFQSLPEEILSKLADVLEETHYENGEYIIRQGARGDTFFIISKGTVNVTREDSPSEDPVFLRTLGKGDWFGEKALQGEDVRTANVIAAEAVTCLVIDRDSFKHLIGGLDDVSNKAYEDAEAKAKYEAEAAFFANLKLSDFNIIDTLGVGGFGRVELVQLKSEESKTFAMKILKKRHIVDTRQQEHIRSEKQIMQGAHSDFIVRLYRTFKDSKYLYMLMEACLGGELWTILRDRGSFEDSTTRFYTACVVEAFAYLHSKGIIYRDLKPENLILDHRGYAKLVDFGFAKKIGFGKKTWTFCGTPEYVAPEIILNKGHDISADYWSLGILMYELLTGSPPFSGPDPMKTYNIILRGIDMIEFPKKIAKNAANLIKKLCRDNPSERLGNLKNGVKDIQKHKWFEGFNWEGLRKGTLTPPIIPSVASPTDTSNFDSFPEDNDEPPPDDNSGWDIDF
Source text: as §1

Assay [3] has as its target Casein kinase I isoform alpha (Homo sapiens, UniProt P48729).
Source text: as §1

In assay [4] the target is Protein kinase C alpha type (Homo sapiens, UniProt P17252).
Source text: as §1

Assay [5] concerns the target cAMP-dependent protein kinase catalytic subunit alpha (Homo sapiens, UniProt P17612).
Source text: as §1

In assay [6] the target is Casein kinase II subunit alpha (Homo sapiens, UniProt P68400).
Sequence of Casein kinase II subunit alpha (P68400 whole entry): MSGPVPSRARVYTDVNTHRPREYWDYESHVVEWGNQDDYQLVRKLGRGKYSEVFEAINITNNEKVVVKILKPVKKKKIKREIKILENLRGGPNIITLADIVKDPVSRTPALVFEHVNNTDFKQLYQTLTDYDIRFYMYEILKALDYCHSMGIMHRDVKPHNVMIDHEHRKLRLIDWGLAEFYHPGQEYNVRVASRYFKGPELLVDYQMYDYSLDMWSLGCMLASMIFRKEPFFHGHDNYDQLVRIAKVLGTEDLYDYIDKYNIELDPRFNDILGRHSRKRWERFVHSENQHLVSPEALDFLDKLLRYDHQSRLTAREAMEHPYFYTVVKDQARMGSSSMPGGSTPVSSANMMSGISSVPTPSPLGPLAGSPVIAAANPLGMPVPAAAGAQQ
Source text: as §1

Sequence of Calcium/calmodulin-dependent protein kinase type II subunit beta (Q13554 whole entry): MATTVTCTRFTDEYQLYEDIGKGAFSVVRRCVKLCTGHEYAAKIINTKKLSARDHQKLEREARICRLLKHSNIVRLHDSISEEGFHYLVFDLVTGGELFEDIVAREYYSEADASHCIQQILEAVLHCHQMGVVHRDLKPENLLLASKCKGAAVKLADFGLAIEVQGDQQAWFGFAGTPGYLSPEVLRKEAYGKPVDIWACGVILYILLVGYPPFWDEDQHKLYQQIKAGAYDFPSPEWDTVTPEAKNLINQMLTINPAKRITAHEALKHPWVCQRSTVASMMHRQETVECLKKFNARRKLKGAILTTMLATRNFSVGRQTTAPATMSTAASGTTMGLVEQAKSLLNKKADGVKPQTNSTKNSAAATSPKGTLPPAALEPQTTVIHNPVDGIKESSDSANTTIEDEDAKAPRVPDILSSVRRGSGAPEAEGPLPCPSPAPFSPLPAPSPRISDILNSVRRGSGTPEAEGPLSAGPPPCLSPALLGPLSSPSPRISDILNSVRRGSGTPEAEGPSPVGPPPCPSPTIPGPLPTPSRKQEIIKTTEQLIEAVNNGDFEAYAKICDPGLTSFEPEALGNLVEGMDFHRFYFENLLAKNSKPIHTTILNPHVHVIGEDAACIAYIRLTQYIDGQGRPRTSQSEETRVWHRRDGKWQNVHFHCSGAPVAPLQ
Sequence of Casein kinase I isoform alpha (P48729 whole entry, canonical isoform): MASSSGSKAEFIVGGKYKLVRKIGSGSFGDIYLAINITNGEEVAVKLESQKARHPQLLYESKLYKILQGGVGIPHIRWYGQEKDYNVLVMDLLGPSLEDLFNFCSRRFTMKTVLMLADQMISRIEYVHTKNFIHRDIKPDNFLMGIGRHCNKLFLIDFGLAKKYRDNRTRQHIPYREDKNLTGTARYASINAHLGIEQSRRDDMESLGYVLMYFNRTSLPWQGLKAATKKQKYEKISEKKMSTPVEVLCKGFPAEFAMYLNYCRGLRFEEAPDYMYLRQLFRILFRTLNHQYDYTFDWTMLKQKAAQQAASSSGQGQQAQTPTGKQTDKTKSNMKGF

In the case of `O=S(=O)(NCCNC/C=C/c1ccc(Br)cc1)c1cccc2cnccc12`, the inhibition constant (Ki) in assay [1] is 29.7 µM; in assay [2], 0.48 µM.
In the case of `O=S(=O)(NCCNC/C=C/c1ccccc1)c1cccc2cnccc12` [H-88], the inhibition constant Ki in assay [1] amounted to 71.3 µM; in assay [2], 0.76 µM; in assay [3], 60.7 µM; in assay [4], 75.7 µM; in assay [5], 0.36 µM; in assay [6], 104 µM.
